Results taken from patent US6406881B2 (priority 1999, dated 2002).

What was measured:
Escherichia coli = test: Mutant prevention concentration (MPC) against Escherichia coli; format: cell-based; conditions: for WI (MPC/MIC): window index
Staphylococcus aureus = test: Mutant prevention concentration (MPC) against Staphylococcus aureus; format: cell-based; conditions: for WI (MPC/MIC): window index

Compound	MPC (MPC10^10) (Escherichia coli)	WI (MPC/MIC) (Escherichia coli)	MPC (MPC10^10) (Staphylococcus aureus)	WI (MPC/MIC) (Staphylococcus aureus)	WI (MPC/MIC) (Staphylococcus aureus; listed as chloramphenicol)	WI (MPC/MIC) (Staphylococcus aureus; listed as rifampicin)
O=C(N[C@H](CO)[C@H](O)c1ccc([N+](=O)[O-])cc1)C(Cl)Cl [Chloramphenicol]	12 μg/ml	6.3	40 μg/ml	21	about 21	
CCn1cc(C(=O)O)c(=O)c2cc(F)c(N3CCNCC3)cc21 [Norfloxacin]	1.5 μg/ml	33	22 μg/ml	26		
CO[C@H]1/C=C/O[C@@]2(C)Oc3c(C)c(O)c4c(O)c(c(/C=N/N5CCN(C)CC5)c(O)c4c3C2=O)NC(=O)/C(C)=C\C=C\[C@H](C)[C@H](O)[C@@H](C)[C@@H](O)[C@@H](C)[C@H](OC(C)=O)[C@@H]1C [Rifampicin]	>4,000 μg/ml	>800	480 μg/ml	120,000		greater than 120,000
NC[C@H]1O[C@H](O[C@H]2[C@H](O)[C@@H](O[C@H]3O[C@H](CO)[C@@H](O)[C@H](N)[C@H]3O)[C@H](N)C[C@@H]2N)[C@H](N)C[C@@H]1O [Tobramycin]	25 μg/ml	21	20 μg/ml	74		
CN[C@H](CC(C)C)C(=O)N[C@H]1C(=O)N[C@@H](CC(N)=O)C(=O)N[C@H]2C(=O)N[C@H]3C(=O)N[C@H](C(=O)N[C@H](C(=O)O)c4cc(O)cc(O)c4-c4cc3ccc4O)[C@H](O)c3ccc(c(Cl)c3)Oc3cc2cc(c3O[C@@H]2O[C@H](CO)[C@@H](O)[C@H](O)[C@H]2O[C@H]2C[C@](C)(N)[C@H](O)[C@H](C)O2)Oc2ccc(cc2Cl)[C@H]1O [Vancomycin]			40 μg/ml	61		
Penicillin	300 μg/ml	100	1 μg/ml	42		
